The nature of assay [1]: Human plasma BSAP levels, Phase I patients. It counts as in vivo. The conditions noted are these: change compared to baseline. From the text: All samples were de-identified and the experiments were approved by the University of Utah Institutional Review Board. Plasma samples were submitted to ARUP for clinical testing of CTX. For BSAP, the Human Bone Panel I capture plate with the Human Alkaline Phosphatase detection kit was utilized (Meso Scale Discovery, Rockville, Md.; […]-2) to measure BSAP levels in undiluted plasma samples per the manufacturer's protocol. ASLAN002 is currently in Phase I testing as an anti-cancer agent (NCT01721148). Regardless of cancer diagnosis, and even in the absence of bone metastasis, RON inhibition might affect normal bone turnover, especially in postmenopausal women due to their high rate of bone loss. […] Shown in FIG. 15A is quantification of the percent change in plasma CTX levels (compared to baseline prior to drug treatment) in blood plasma of patients receiving ASLAN002 in the Phase I clinical trial. […] None of the patients analyzed were treated concurrently with anti-osteoporotic agents. […] Shown in FIG. 15B is quantification of the percent change in BSAP levels (compared to baseline) in blood plasma of patients receiving ASLAN002. […] Note that these patients were not selected based on a diagnosis of bone metastasis; rather, markers of bone turnover in patients with various cancer diagnoses who participated in the Phase I trial of ASLAN002 were simply assessed.

Assay [2] deals with ERK. The assay can be described thus: Western blot of osteoclast lysates, ERK. Type of assay: cell-based, mice. The conditions noted are these: osteoclasts. On the procedure: Cells were serum starved (0.5% FBS) for 3 hours prior to lysate collection. Inhibitors were added 1 hour prior to lysis and MSP was added 15 min prior to lysis when indicated. Cells were washed with 1×PBS and harvested in lysis buffer (25 mM Tris-HCl, pH 7.5, 0.42 M NaCl, 1.5 mM MgCl2, 0.5 mM EDTA, 1 mM DTT, 25% sucrose, and 0.1% Triton X-100) plus 100× protease arrest (Bioscience, Bozeman, Mont.) and 100× orthovanadate. Primary antibodies used for immunoblotting include: anti-MSP (Santa Cruz, sc-6090, Dallas, Tex.) at a 1:250 dilution, anti-pan Akt (Cell Signaling, #4691S, Beverly, Mass.) at a 1:1000 dilution, anti-pan Erk (Cell Signaling, #4695, Beverly, Mass.) at a 1:1000 dilution, anti-phospho Akt (Cell Signaling, #9271 L, Beverly, Mass.) at a 1:500 dilution, anti-phospho Erk (Cell Signaling, #4370S, Beverly, Mass.) at a 1:500 dilution, anti-Src (Cell Signaling, #2110, Beverly, Mass.) at a 1:500 dilution, and anti-phospho Src (Y416) (Cell Signaling, #2113, Beverly, Mass.) at a 1:500 dilution. The secondary antibodies used were HRP-conjugated anti-goat IgG (Santa Cruz, Dallas, Tex.) and anti-rabbit IgG (Santa Cruz, Dallas, Tex.). Chemiluminescent signals were detected using Immun-Star HRP (BioRad, Hercules, Calif.).

The nature of assay [3]: In vivo bone labeling and histomorphometry. Also noted: species or system mice. The conditions noted are these: normal, uninjected animals. On the procedure:
To label bones, mice were intraperitoneally injected with 20 mg/kg of calcein (Sigma-Aldrich, St. Louis, Mo.) or 30 mg/kg of Alizarin Complexone (Sigma-Aldrich, St. Louis, Mo.) in a 2% sodium bicarbonate solution. Mice 6 to 8 months of age were labeled 8 days and 2 days prior to euthanasia, respectively. Tibia were fixed in 70% ethanol, embedded in methylmethacrylate and sectioned. Bone histomorphometry on H and E sections and bone labeled sections were performed as previously described (Parfitt, et al. Report of the ASBMR Histomorphometry Nomenclature Committee. J. Bone Miner. Res. 1987, 2, 595-610). Analysis of bone volume (BV/TV), and trabecular spacing (Tb. Sp.) were performed on the metaphyseal region of tibia sections stained with H and E. Bone formation rate (BFR) per bone surface (BS) and mineral apposition rate (MAR) of trabeculae were calculated within the metaphyseal region of the tibia. For all histomorphometry, three sections per mouse with 4 to 5 mice per group were analyzed. Analysis was performed using Bioquant Osteo software (Bioquant Image Analysis Corporation, Nashville, Tenn.).

Assay [4] is described as follows: Ovariectomy-induced bone loss (osteoporosis study). It counts as in vivo. The conditions noted are these: WT OVX mice, treatment from 1 day post-ovariectomy, analysis at 28 days.
Text: Representative samples were imaged by micro-computed tomography (μCT, Skyscan) with volume rendering snapshots of the tibia. For the osteoporosis study, representative samples were imaged and presented as volume rendering snapshots of the axial view of the tibial metaphysis region. For bone mineral density (BMD) measurements, the right tibia was removed and fixed in 10% NBF overnight. The tibia were then scanned by dual-energy X-ray absorptiometry (DXA) using a Norland pDEXA densitometer (Norland Medical Systems, White Plains, N.Y.). A region including the primary and secondary spongiosa was used to determine the BMD of the tibia. […] For the osteoporosis study, mice were treated beginning on the day after ovary removal. The treatment regimen for OSI-296 was 200 mg/kg every other day by oral gavage. ASLAN002 was administered at 50 mg/kg every other day by oral gavage. Treatment continued until the time of sacrifice at 28 days. […] To investigate the role of the MSP/RON pathway in bone loss due to post-menopausal osteoporosis, ovariectomies were performed in WT and RonTK−/− mice and bone loss was analyzed by dual-energy X-ray absorptiometry (DXA) and bone histomorphometry 28 days later. […] WT OVX mice were treated with ASLAN002 beginning 1 day post-ovariectomy. Mice were sacrificed 28 days post-ovariectomy for analysis.
Assay [5] relates to DU4475 breast cancer cells. The assay can be described thus: Intratibial DU4475 tumor-induced osteolysis. It counts as in vivo, mice. The conditions noted are these: treatment began 3 days post tumor cell injection. An excerpt:
All procedures involving mice and experimental protocols were approved by the Institutional Animal Care and Use Committee (IACUC) of the University of Utah. The RonTK−/− mice which reside on the FVB background, were crossed with NOD.SCID mice for an immune-compromised mouse model. As a control, wild-type FVB mice were also crossed with NOD.SCID mice. The STK−/− mice, which are on a C57BL/6 background, were compared to wild-type C57BL/6 mice as controls. Mice for all experiments were 6 to 8 weeks of age. For intratibial injections, 1×10^5 (PyMTor DU4475) or 3×10^5 (MDA-MB-231) tumor cells were resuspended in 10 μL matrigel and injected into the right tibia of anesthetized female FVB (PyMT) or NOD.SCID mice carrying various alleles of RON. Osteolysis was assessed by X-ray radiography. Dissected hindlimbs from mice sacrificed at the final time point in each experiment were placed in the Kodak In-vivo Multispectral Imaging System FX and exposed to X-ray radiography at 35 kV for 100 sec. Excess tumor tissue was removed from the bones prior to X-ray. Osteolytic lesions were quantified using Image J software (NCBI). All images were compared to the contralateral leg as an internal control.
For in vivo experiments, the OSI-296 inhibitor was dissolved in 40% Trappsol with 0.01 M HCl, and mice were treated at a concentration of 200 mg/kg daily by oral gavage. […]

For `CCOc1ccn(-c2ccc(F)cc2)c(=O)c1C(=O)Nc1ccc(Oc2ccnc(N)c2Cl)c(F)c1` [ASLAN002], the “plasma bone-specific alkaline phosphatase (BSAP) levels” value in assay [1] is “increased plasma BSAP”. Further, the ERK activity entry in assay [2] is “no effect”. Besides, in assay [3], the “bone formation rate per total bone surface” value was “not significant” and the mineral apposition rate result was “not significant”. For the same compound, the “bone loss after ovary removal” value in assay [4] is reported as “completely prevented bone loss”. For the same compound, in assay [5], the “osteolysis from DU4475 cells” value is “prevented osteolysis”.

The values are drawn from US9907791B2, “Ron inhibitors for use in preventing and treating bone loss” (UNIVERSITY OF UTAH RESEARCH FOUNDATION, priority 2014, dated 2018).
